# Assays:
# [1] = target: T1, Phosphatidylinositol 4,5-bisphosphate 3-kinase catalytic subunit delta isoform (Homo sapiens, UniProt O00329); test: Inhibition of recombinant PI3Kdelta (unknown origin) using […] as substrate after 3 hrs incubation by competitive fluorescence polarization kinase activity assay
# T1 sequence (O00329 whole entry): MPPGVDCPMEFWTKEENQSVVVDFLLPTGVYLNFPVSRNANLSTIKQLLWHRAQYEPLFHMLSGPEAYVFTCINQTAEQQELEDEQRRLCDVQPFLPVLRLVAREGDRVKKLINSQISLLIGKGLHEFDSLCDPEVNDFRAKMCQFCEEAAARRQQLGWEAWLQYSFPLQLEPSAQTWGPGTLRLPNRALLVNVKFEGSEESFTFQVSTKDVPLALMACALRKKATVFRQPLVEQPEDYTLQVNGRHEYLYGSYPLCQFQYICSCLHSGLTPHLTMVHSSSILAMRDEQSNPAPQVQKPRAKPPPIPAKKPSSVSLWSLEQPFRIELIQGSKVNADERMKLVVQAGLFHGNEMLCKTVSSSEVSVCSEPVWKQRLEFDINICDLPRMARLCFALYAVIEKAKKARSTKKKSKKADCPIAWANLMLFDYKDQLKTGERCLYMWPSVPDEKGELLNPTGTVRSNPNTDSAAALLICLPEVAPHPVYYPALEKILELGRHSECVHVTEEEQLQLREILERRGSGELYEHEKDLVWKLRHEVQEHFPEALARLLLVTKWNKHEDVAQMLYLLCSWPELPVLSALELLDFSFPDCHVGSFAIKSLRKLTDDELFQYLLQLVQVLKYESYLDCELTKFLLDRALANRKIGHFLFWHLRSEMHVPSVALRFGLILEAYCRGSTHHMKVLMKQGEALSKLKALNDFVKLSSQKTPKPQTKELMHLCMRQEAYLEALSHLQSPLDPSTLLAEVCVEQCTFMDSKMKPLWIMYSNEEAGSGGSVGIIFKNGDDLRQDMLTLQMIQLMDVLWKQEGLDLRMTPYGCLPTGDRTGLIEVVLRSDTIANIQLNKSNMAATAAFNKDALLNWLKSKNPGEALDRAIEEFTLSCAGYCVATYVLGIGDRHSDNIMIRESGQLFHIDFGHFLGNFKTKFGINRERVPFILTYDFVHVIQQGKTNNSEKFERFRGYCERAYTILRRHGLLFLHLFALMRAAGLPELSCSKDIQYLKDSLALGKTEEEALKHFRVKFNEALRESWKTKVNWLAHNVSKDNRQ
# [2] = Antiproliferative activity against human HL60 cells assessed as inhibition of absorbance after 72 hrs by MTT assay; format: functional, cell-based; details: HL-60, 72 h
# [3] = system: A549; test: Antiproliferative activity against human A549 cells assessed as inhibition of absorbance after 72 hrs by MTT assay; format: functional, cell-based; details: A549, 72 h
# [4] = Antiproliferative activity against human HCT116 cells assessed as inhibition of absorbance after 72 hrs by MTT assay; format: functional, cell-based; details: HCT-116, 72 h
# [5] = target: Phosphatidylinositol 4,5-bisphosphate 3-kinase catalytic subunit beta isoform (Homo sapiens, UniProt P42338); test: Inhibition of recombinant PI3Kbeta (unknown origin) […] after 3 hrs incubation by competitive fluorescence polarization kinase activity assay
# Phosphatidylinositol 4,5-bisphosphate 3-kinase catalytic subunit beta isoform, sequence (P42338 whole entry, canonical isoform): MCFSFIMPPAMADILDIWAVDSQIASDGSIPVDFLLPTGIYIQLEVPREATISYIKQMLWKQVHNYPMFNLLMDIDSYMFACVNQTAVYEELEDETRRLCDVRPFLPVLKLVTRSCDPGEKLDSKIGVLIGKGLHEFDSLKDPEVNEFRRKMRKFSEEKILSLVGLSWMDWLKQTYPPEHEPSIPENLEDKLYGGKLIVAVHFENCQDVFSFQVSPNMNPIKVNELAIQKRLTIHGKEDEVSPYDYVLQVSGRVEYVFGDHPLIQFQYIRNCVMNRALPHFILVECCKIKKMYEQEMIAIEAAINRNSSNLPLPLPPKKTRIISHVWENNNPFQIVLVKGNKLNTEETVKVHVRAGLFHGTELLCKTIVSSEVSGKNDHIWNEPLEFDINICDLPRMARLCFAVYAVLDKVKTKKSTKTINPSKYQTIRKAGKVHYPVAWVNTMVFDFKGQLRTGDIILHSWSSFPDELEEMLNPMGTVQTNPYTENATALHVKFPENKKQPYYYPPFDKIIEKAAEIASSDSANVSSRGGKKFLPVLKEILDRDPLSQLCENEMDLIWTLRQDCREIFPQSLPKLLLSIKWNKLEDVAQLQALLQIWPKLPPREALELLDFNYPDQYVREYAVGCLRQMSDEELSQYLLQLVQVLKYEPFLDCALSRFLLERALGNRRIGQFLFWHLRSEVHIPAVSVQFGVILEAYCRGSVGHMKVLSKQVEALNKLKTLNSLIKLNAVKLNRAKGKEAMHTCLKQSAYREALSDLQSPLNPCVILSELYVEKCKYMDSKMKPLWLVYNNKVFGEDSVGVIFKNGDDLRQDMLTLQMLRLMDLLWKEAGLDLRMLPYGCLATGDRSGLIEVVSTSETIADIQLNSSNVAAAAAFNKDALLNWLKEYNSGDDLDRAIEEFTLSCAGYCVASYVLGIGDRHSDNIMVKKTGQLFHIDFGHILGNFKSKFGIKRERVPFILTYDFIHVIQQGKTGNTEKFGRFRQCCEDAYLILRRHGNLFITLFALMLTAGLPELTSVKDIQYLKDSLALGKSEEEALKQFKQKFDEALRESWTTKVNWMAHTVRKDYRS
# [6] = target: Phosphatidylinositol 4,5-bisphosphate 3-kinase catalytic subunit gamma isoform (Homo sapiens, UniProt P48736); test: Inhibition of recombinant PI3Kgamma (unknown origin) using […] as substrate after 3 hrs incubation by competitive fluorescence polarization kinase activity assay
# Phosphatidylinositol 4,5-bisphosphate 3-kinase catalytic subunit gamma isoform, sequence (P48736 whole entry, canonical isoform): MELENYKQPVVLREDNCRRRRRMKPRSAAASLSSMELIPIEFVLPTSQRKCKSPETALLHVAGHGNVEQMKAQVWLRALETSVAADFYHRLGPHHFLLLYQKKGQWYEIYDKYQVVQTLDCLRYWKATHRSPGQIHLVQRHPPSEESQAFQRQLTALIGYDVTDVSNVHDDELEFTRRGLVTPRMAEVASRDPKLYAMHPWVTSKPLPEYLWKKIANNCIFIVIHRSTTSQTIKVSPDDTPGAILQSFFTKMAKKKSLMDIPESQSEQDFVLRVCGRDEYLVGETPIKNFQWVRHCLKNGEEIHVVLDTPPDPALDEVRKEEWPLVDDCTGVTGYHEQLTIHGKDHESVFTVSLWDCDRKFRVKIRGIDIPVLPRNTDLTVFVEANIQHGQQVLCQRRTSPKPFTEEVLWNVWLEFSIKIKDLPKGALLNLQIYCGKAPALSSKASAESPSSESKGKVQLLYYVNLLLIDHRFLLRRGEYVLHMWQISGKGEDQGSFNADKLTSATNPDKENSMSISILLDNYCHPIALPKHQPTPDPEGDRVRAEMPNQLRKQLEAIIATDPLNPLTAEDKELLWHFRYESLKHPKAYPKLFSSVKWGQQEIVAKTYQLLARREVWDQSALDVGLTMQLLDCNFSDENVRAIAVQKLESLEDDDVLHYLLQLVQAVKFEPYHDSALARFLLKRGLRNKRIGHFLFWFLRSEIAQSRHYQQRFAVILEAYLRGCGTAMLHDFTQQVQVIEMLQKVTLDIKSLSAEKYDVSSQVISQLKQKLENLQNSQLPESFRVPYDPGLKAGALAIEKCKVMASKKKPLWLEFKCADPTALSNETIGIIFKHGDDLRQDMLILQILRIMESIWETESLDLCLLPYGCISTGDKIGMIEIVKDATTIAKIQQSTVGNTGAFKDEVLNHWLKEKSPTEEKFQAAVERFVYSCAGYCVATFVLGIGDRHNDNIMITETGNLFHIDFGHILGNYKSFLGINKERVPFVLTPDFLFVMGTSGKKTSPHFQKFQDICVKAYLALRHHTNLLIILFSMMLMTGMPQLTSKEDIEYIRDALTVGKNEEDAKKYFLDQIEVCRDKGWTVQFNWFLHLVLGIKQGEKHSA
# [7] = target: Phosphatidylinositol 4,5-bisphosphate 3-kinase catalytic subunit alpha isoform (Homo sapiens, UniProt P42336); test: Inhibition of recombinant PI3Kalpha (unknown origin) using […] as substrate after 3 hrs incubation by competitive fluorescence polarization kinase activity assay
# Phosphatidylinositol 4,5-bisphosphate 3-kinase catalytic subunit alpha isoform, sequence (P42336 whole entry, canonical isoform): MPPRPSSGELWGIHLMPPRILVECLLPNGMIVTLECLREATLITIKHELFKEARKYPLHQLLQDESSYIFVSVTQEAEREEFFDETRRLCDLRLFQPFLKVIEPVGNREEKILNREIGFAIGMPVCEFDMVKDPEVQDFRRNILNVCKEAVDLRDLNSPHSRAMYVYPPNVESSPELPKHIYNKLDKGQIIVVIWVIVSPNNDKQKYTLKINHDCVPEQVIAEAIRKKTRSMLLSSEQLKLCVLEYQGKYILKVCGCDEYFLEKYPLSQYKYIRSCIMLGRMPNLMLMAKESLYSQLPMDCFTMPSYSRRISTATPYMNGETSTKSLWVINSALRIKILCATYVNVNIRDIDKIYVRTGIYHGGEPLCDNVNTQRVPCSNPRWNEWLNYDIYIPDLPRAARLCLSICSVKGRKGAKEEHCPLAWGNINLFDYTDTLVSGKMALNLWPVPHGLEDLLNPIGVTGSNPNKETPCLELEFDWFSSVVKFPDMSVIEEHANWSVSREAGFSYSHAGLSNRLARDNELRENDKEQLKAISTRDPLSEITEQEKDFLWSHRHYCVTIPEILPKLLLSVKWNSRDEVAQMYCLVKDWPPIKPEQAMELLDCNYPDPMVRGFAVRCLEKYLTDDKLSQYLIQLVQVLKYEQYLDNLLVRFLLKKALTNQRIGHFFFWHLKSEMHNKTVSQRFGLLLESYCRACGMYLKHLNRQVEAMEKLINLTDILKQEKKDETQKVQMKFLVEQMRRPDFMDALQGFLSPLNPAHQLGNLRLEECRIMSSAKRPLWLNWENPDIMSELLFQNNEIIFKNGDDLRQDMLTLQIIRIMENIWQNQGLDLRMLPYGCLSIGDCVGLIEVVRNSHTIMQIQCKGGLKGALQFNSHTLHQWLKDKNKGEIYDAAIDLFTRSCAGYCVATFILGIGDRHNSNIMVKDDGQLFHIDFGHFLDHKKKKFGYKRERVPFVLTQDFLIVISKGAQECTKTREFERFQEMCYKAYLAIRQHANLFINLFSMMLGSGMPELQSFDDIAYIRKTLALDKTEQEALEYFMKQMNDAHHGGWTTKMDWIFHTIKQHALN
# [8] = Antiproliferative activity against human HuH7 cells assessed as inhibition of absorbance after 72 hrs by MTT assay; format: functional, cell-based; details: Huh-7, 72 h
# [9] = system: HCT-116; test: Induction of apoptosis in human HCT116 cells assessed as early apoptotic cells at 2 uM after 24 hrs using annexin V/propidium iodide staining based flow cytometry (reference value: 1.93%); format: functional
# [10] = system: HCT-116; test: Induction of apoptosis in human HCT116 cells assessed as necrotic cells at 0.5 uM after 24 hrs using annexin V/propidium iodide staining based flow cytometry (reference value: 4.09%); format: functional
# [11] = system: HCT-116; test: Induction of apoptosis in human HCT116 cells assessed as early apoptotic cells after 24 hrs using annexin V/propidium iodide staining based flow cytometry; format: functional, cell-based
# [12] = system: HCT-116; test: Induction of apoptosis in human HCT116 cells after 24 hrs using annexin V/propidium iodide staining based flow cytometry; format: functional, cell-based
# [13] = system: HCT-116; test: Induction of apoptosis in human HCT116 cells assessed as necrotic cells at 2 uM after 24 hrs using annexin V/propidium iodide staining based flow cytometry (reference value: 4.09%); format: functional
# [14] = system: HCT-116; test: Induction of apoptosis in human HCT116 cells assessed as viable cells at 2 uM after 24 hrs using annexin V/propidium iodide staining based flow cytometry (reference value: 93.3%); format: functional; details: HCT-116, 24 h, read-out: Activity
# [15] = system: HCT-116; test: Induction of apoptosis in human HCT116 cells assessed as necrotic cells at 1 uM after 24 hrs using annexin V/propidium iodide staining based flow cytometry (reference value: 4.09%); format: functional
# [16] = system: HCT-116; test: Induction of apoptosis in human HCT116 cells assessed as viable cells at 0.5 uM after 24 hrs using annexin V/propidium iodide staining based flow cytometry (reference value: 93.3%); format: functional; details: HCT-116, 24 h, read-out: Activity
# [17] = system: HCT-116; test: Induction of apoptosis in human HCT116 cells assessed as early apoptotic cells at 0.5 uM after 24 hrs using annexin V/propidium iodide staining based flow cytometry (reference value: 1.93%); format: functional
# [18] = system: HCT-116; test: Induction of apoptosis in human HCT116 cells assessed as viable cells at 1 uM after 24 hrs using annexin V/propidium iodide staining based flow cytometry (reference value: 93.3%); format: functional; details: HCT-116, 24 h, read-out: Activity
# [19] = system: HCT-116; test: Induction of apoptosis in human HCT116 cells assessed as late apoptotic cells at 0.5 uM after 24 hrs using annexin V/propidium iodide staining based flow cytometry (reference value: 0.710%); format: functional
# [20] = system: HCT-116; test: Induction of apoptosis in human HCT116 cells assessed as late apoptotic cells at 2 uM after 24 hrs using annexin V/propidium iodide staining based flow cytometry (reference value: 0.710%); format: functional
# [21] = system: HCT-116; test: Induction of apoptosis in human HCT116 cells assessed as early apoptotic cells at 1 uM after 24 hrs using annexin V/propidium iodide staining based flow cytometry (reference value: 1.93%); format: functional
# [22] = system: HCT-116; test: Induction of apoptosis in human HCT116 cells assessed as late apoptotic cells at 1 uM after 24 hrs using annexin V/propidium iodide staining based flow cytometry (reference value: 0.710%); format: functional
SMILES,IC50 [1],IC50 [3],IC50 [5],IC50 [6],IC50 [7],IC50 [2],IC50 [4],IC50 [8],also measured
Cc1ccc2c(c1)-c1nc3cc(Cl)ccc3n1CCO2,–,55.6 µM,–,–,–,51.6 µM,46.4 µM,64.5 µM,–
Cc1ccc2c(c1)nc1n2CCOc2ccc(Cl)cc2-1,–,61.6 µM,–,–,–,57.4 µM,58.2 µM,63.4 µM,–
c1ccc2c(c1)OCCn1c-2nc2ccccc21,–,133 µM,–,–,–,108 µM,101 µM,124 µM,–
FC(F)(F)c1ccc2c(c1)nc1n2CCOc2ccccc2-1,–,11.5 µM,–,–,–,10.1 µM,13.8 µM,18.7 µM,–
Fc1ccc2c(c1)nc1n2CCOc2ccc(Br)cc2-1,> 50 µM,0.7 µM,0.473 µM,27.9 µM,0.181 µM,0.78 µM,0.74 µM,0.74 µM,–
Cc1ccc2c(c1)nc1n2CCOc2ccccc2-1,–,83.7 µM,–,–,–,75.2 µM,73.5 µM,82.6 µM,–
O=[N+]([O-])c1ccc2c(c1)nc1n2CCOc2ccccc2-1,–,122 µM,–,–,–,94.5 µM,91 µM,105 µM,–
Fc1ccc2c(c1)nc1n2CCOc2ccc(Cl)cc2-1,42.6 µM,1.71 µM,0.488 µM,21.7 µM,0.283 µM,1.89 µM,1.83 µM,1.35 µM,–
Cc1ccc2c(c1)-c1nc3cc(Br)ccc3n1CCO2,47.8 µM,7.88 µM,1.03 µM,44.1 µM,0.662 µM,7.68 µM,7.38 µM,4.91 µM,–
Clc1ccc2c(c1)nc1n2CCOc2ccccc2-1,–,77.3 µM,–,–,–,73.8 µM,71.5 µM,80.3 µM,–
Clc1ccc2c(c1)nc1n2CCOc2ccc(Br)cc2-1,> 50 µM,0.17 µM,0.188 µM,11.8 µM,0.031 µM,0.15 µM,0.12 µM,0.18 µM,–
O=[N+]([O-])c1ccc2c(c1)nc1n2CCOc2ccc(Cl)cc2-1,–,28.3 µM,–,–,–,32.9 µM,28.4 µM,20.1 µM,–
Cc1ccc2c(c1)nc1n2CCOc2ccc(Br)cc2-1,–,92.8 µM,–,–,–,88.6 µM,80.1 µM,97.4 µM,–
Fc1ccc2c(c1)nc1n2CCOc2ccccc2-1,–,89.4 µM,–,–,–,82.5 µM,76.5 µM,91.9 µM,–
Cc1ccc2c(c1)-c1nc3cc(C)ccc3n1CCO2,> 50 µM,0.61 µM,0.394 µM,17.1 µM,0.118 µM,0.58 µM,0.59 µM,0.67 µM,–
Cc1ccc2c(c1)-c1nc3cc([N+](=O)[O-])ccc3n1CCO2,34.6 µM,0.11 µM,0.184 µM,9.44 µM,0.016 µM,0.1 µM,0.08 µM,0.12 µM,Activity [9]: 27.3%; Activity [10]: 0.523%; Activity [11]: Dose-dependent effect; Activity [12]: Dose-dependent effect; Activity [13]: 0.974%; viability at 2 µM [14]: 65.7%; Activity [15]: 1.26%; viability at 0.5 µM [16]: 79.5%; Activity [17]: 15.1%; viability at 1 µM [18]: 76.8%; Activity [19]: 4.91%; Activity [20]: 5.98%; Activity [21]: 17.8%; Activity [22]: 4.13%
O=c1cc(N2CCOCC2)oc2c(-c3ccccc3)cccc12 [LY-294002],1.36 µM,82.3 µM,–,–,–,–,51.8 µM,67.2 µM,–

# The remaining molecules from weak to strong by IC50 [3], led by results:
IC50 [1],IC50 [3],IC50 [5],IC50 [6],IC50 [7],SMILES,IC50 [2],IC50 [4],IC50 [8],also measured
–,148 µM,–,–,–,Cc1ccc2c(c1)-c1nc3ccccc3n1CCO2,122 µM,112 µM,144 µM,–
–,128 µM,–,–,–,Brc1ccc2c(c1)-c1nc3ccccc3n1CCO2,103 µM,98.5 µM,132 µM,–
–,108 µM,–,–,–,Clc1ccc2c(c1)-c1nc3ccccc3n1CCO2,91.3 µM,87.7 µM,92.5 µM,–
–,74.1 µM,–,–,–,Clc1ccc2c(c1)-c1nc3cc(Br)ccc3n1CCO2,66.7 µM,64.4 µM,72.1 µM,–
–,68.5 µM,–,–,–,FC(F)(F)c1ccc2c(c1)nc1n2CCOc2ccc(Br)cc2-1,66.4 µM,60.6 µM,69.7 µM,–
–,49.5 µM,–,–,–,Brc1ccc2c(c1)nc1n2CCOc2ccccc2-1,44.3 µM,43.9 µM,58.5 µM,–
–,38.3 µM,–,–,–,FC(F)(F)c1ccc2c(c1)nc1n2CCOc2ccc(Cl)cc2-1,38 µM,34.7 µM,42.3 µM,–
–,22 µM,–,–,–,O=[N+]([O-])c1ccc2c(c1)nc1n2CCOc2ccc(Br)cc2-1,17.5 µM,19 µM,24.3 µM,–
> 50 µM,4.95 µM,1.21 µM,41.6 µM,0.685 µM,Cc1ccc2c(c1)-c1nc3cc(C(F)(F)F)ccc3n1CCO2,4.86 µM,4.45 µM,6.47 µM,–
> 50 µM,2.85 µM,0.907 µM,34.6 µM,0.474 µM,Cc1ccc2c(c1)-c1nc3cc(F)ccc3n1CCO2,4.56 µM,2.46 µM,3.86 µM,–
> 50 µM,0.56 µM,0.363 µM,24.3 µM,0.127 µM,Clc1ccc2c(c1)-c1nc3cc(Cl)ccc3n1CCO2,0.53 µM,0.52 µM,0.45 µM,–
39.8 µM,0.48 µM,0.284 µM,19.5 µM,0.092 µM,Brc1ccc2c(c1)-c1nc3cc(Br)ccc3n1CCO2,0.47 µM,0.47 µM,0.51 µM,–
